Results taken from EPA's ToxValDB 9.5 (doi:10.2903/j.efsa.2005.33ar).

Columns and labels:
[1] = tested on: Aphidius rhopalosiphi; details: not reported; mortality
[2] = tested on: Apis mellifera; details: acute, dermal, mortality
[3] = tested on: Bibionidae; details: chronic/long-term; duration: 26 days
[4] = tested on: Bird; details: acute; oral; unspecified; mortality
[5] = tested on: Canidae; details: chronic; duration: 1 years; Dog Other; body weight
[6] = tested on: Colinus virginianus
[7] = tested on: Daphnia magna; details: chronic/long-term; duration: 21 days; mobility
[8] = tested on: Landoltia sp.; details: chronic/long-term; biomass
[9] = tested on: Oncorhynchus mykiss
[10] = tested on: Oryctolagus sp.; details: reproduction developmental; body weight
[11] = tested on: Rattus norvegicus; details: for NOAEL: reproduction developmental
[12] = tested on: Tagia sp.

CC1(C)CC/C(=C\c2ccc(Cl)cc2)C1(O)Cn1cncn1 (stereo not drawn) [Triticonazole]
LEL [1]: 25 g/ha | LD50 [2]: > 156 µg/piece | LD50 ([2]; duration: 48 hours): > 100 µg/piece | NOEC [3]: 0.0777 mg/L | LD50 [4]: > 2000 mg/kg | NOAEL [5]: 2.5 mg/kg-day | LD50 ([6]; acute, oral, diet, mortality): > 693 mg/kg | NOAEL ([6]; reproduction developmental): 19.5 mg/kg-day | NOEC [7]: 0.092 mg/L | NOEC [8]: 0.33 mg/L | LC50 ([9]; acute, duration: 96 hours, mortality): > 3.6 µg/mL | NOEC ([9]; chronic/long-term, duration: 28 days, growth): 0.01 mg/L | NOAEL [10]: 5 mg/kg-day | LD50 ([11]; acute, mortality): > 2000 mg/kg | NOAEL ([11]; F): 48 mg/kg-day | NOAEL ([11]; M): 49 mg/kg-day | LC50 ([12]; acute, duration: 14 days, mortality): > 1000 mg/kg | NOEC ([12]; chronic/long-term, duration: 56 days, reproduction): 500 mg/kg
